Test results as given in PubChem BioAssay (NCI).
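GI50 = concentration required for 50% inhibition of growth. TGI: concentration producing complete growth inhibition.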

What was measured:
Test in all cases: DTP human tumour cell line panel, 384-well format
[1] = system: 786-0 renal
[2] = system: A498 renal
[3] = system: A549 NSCLC
[4] = system: ACHN renal
[5] = system: BT-549 breast
[6] = system: CAKI-1 renal
[7] = system: CCRF-CEM leukemia
[8] = system: COLO 205 colon
[9] = system: DU-145 prostate
[10] = system: HCC-2998 colon
[11] = system: HCT-116 colon
[12] = system: HCT-15 colon
[13] = system: HL-60(TB) leukemia
[14] = system: HOP-62 NSCLC
[15] = system: HOP-92 NSCLC
[16] = system: HT29 colon
[17] = system: IGROV1 ovarian
[18] = system: K-562 leukemia
[19] = system: KM12 colon
[20] = system: LOX IMVI melanoma
[21] = system: M14 melanoma
[22] = system: MALME-3M melanoma
[23] = system: MCF7 breast
[24] = system: MDA-MB-231 breast
[25] = system: MDA-MB-435 melanoma
[26] = system: MDA-MB-468 breast
[27] = system: MOLT-4 leukemia
[28] = system: NCI-H226 lung
[29] = system: NCI-H23 lung
[30] = system: NCI-H322M lung
[31] = system: NCI-H460 NSCLC
[32] = system: NCI-H522 lung
[33] = system: NCI/ADR-RES ovarian
[34] = system: OVCAR-3 ovarian
[35] = system: OVCAR-4 ovarian
[36] = system: OVCAR-5 ovarian
[37] = system: OVCAR-8 ovarian
[38] = system: PC-3 prostate
[39] = system: RXF 393 renal
[40] = system: SF-268 CNS
[41] = system: SF-295 CNS
[42] = system: SF-539 CNS
[43] = system: SK-MEL-2 melanoma
[44] = system: SK-MEL-28 melanoma
[45] = system: SK-MEL-5 melanoma
[46] = system: SK-OV-3 ovarian
[47] = system: SN12C renal
[48] = system: SNB-19 CNS
[49] = system: SR leukemia
[50] = system: SW-620 colon
[51] = system: T-47D breast
[52] = system: TK-10 renal
[53] = system: U251 glioblastoma
[54] = system: UACC-257 melanoma
[55] = system: UACC-62 melanoma
[56] = system: UO-31 renal

With `Cc1c2c(nn1C)CSCc1cc(n(C)n1)CSc1cc(c3ccccc3c1)OCCCc1c(C(=O)O)n(C)c3c-2c(Cl)ccc13` the GI50 [1] was 3.06 µM, the TGI [1] was 11.5 µM and the GI50 [2] was 3.69 µM. For the same compound, the TGI [2] was 14.1 µM, the GI50 [3] was 3.94 µM and the TGI [3] was 15.1 µM. The GI50 [4] was 4.09 µM, the TGI [4] was 15.9 µM and the GI50 [5] was 1.62 µM. The TGI [5] was 4.58 µM, the GI50 [6] was 5.74 µM and the TGI [6] was 18.2 µM. The GI50 [7] was 0.631 µM, the TGI [7] was 2.33 µM and the GI50 [8] was 5.21 µM. The TGI [8] was 17.3 µM, the GI50 [9] was 2.98 µM and the TGI [9] was 8.97 µM. It also gave a GI50 [10] of 1.11 µM, a TGI [10] of 3.94 µM and a GI50 [11] of 2.41 µM. For the same compound, the TGI [11] was 6.04 µM, the GI50 [12] was 4.49 µM and the TGI [12] was 15.5 µM. It also gave a GI50 [13] of 0.0122 µM, a TGI [13] of 0.0248 µM and a GI50 [14] of 2.41 µM. For the same compound, the TGI [14] was 10.6 µM, the GI50 [15] was 2.08 µM and the TGI [15] was 5.64 µM. For the same compound, the GI50 [16] was 3.49 µM, the TGI [16] was 11.3 µM and the GI50 [17] was 2.85 µM. It also gave a TGI [17] of 10.9 µM, a GI50 [18] of 3.78 µM and a TGI [18] of 13.1 µM. It also gave a GI50 [19] of 2.13 µM, a TGI [19] of 5.14 µM and a GI50 [20] of 3.01 µM. For the same compound, the TGI [20] was 10.1 µM, the GI50 [21] was 2.8 µM and the TGI [21] was 8.79 µM. It also gave a GI50 [22] of 1.76 µM, a TGI [22] of 4.45 µM and a GI50 [23] of 0.336 µM. The TGI [23] was 2.75 µM, the GI50 [24] was 6.22 µM and the TGI [24] was 18.5 µM. For the same compound, the GI50 [25] was 1.01 µM, the TGI [25] was 13.2 µM and the GI50 [26] was 0.126 µM. For the same compound, the TGI [26] was 0.581 µM, the GI50 [27] was 0.0856 µM and the TGI [27] was 0.236 µM. The GI50 [28] was 2.59 µM, the TGI [28] was 7.4 µM and the GI50 [29] was 0.185 µM. It also gave a TGI [29] of 0.861 µM, a GI50 [30] of 8.43 µM and a TGI [30] of 20.8 µM. The GI50 [31] was 1.96 µM, the TGI [31] was 4.68 µM and the GI50 [32] was 0.0686 µM. It also gave a TGI [32] of 0.581 µM, a GI50 [33] of 12 µM and a TGI [33] of 24.4 µM. For the same compound, the GI50 [34] was 1.76 µM, the TGI [34] was 3.69 µM and the GI50 [35] was 0.459 µM. It also gave a TGI [35] of 3.54 µM, a GI50 [36] of 3.99 µM and a TGI [36] of 14 µM. It also gave a GI50 [37] of 4.01 µM, a TGI [37] of 15.3 µM and a GI50 [38] of 3.04 µM. For the same compound, the TGI [38] was 9.02 µM, the GI50 [39] was 0.375 µM and the TGI [39] was 2.13 µM. The GI50 [40] was 3.04 µM, the TGI [40] was 11.9 µM and the GI50 [41] was 1.85 µM. It also gave a TGI [41] of 4.23 µM, a GI50 [42] of 1.74 µM and a TGI [42] of 4.35 µM. It also gave a GI50 [43] of 0.0454 µM, a TGI [43] of 0.189 µM and a GI50 [44] of 2.51 µM. The TGI [44] was 7.44 µM, the GI50 [45] was 1.23 µM and the TGI [45] was 2.69 µM. It also gave a GI50 [46] of 6.18 µM, a TGI [46] of 19.2 µM and a GI50 [47] of 3.4 µM. For the same compound, the TGI [47] was 13.4 µM, the GI50 [48] was 3.5 µM and the TGI [48] was 12 µM. For the same compound, the GI50 [49] was 0.0157 µM, the TGI [49] was 0.0329 µM and the GI50 [50] was 3.96 µM. For the same compound, the TGI [50] was 13.6 µM, the GI50 [51] was 2.3 µM and the TGI [51] was 8.32 µM. It also gave a GI50 [52] of 3.3 µM, a TGI [52] of 12.7 µM and a GI50 [53] of 2.35 µM. It also gave a TGI [53] of 4.92 µM, a GI50 [54] of 2.59 µM and a TGI [54] of 9.27 µM. For the same compound, the GI50 [55] was 0.134 µM, the TGI [55] was 0.349 µM and the GI50 [56] was 3.82 µM. It also gave a TGI [56] of 14.6 µM.
